Experiment in all cases: biochemical
What all share (type): biochemical

Experiment [1] concerns the target T1, 382 unique human kinases (Homo sapiens, UniProt O43353).
T1 construct: purchased Reaction Biology (HotSpot contract assay)
The settings on record: RIPK2, 10 uM; for remaining activity at 10 µM: read-out: % Enzyme Activity (relative to DMSO controls).

In experiment [2] the target is T2, 382 unique human kinases (Homo sapiens, UniProt Q96L34).
T2 construct: purchased Reaction Biology (HotSpot contract assay)
T2 sequence (Q96L34 1-752): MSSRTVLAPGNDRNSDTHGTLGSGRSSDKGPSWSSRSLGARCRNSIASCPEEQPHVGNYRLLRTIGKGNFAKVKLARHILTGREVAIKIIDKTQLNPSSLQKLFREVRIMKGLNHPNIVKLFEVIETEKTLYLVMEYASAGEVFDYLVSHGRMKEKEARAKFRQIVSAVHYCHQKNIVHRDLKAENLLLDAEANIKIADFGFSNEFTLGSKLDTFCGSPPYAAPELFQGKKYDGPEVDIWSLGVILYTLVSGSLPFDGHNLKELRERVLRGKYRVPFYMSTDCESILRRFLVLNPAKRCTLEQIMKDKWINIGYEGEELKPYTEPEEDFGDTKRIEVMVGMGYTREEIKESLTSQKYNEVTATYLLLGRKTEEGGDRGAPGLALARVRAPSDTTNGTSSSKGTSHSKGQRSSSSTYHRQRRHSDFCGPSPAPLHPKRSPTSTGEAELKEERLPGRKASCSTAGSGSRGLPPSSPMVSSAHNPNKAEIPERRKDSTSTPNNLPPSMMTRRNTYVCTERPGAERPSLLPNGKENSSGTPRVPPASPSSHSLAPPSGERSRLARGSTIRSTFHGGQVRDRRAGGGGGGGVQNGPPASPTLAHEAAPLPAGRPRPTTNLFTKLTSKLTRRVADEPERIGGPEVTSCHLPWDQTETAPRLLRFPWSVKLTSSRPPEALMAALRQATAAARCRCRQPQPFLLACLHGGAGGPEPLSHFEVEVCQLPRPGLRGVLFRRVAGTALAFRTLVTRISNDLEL
The settings on record: kinase MARK4, compound 10 uM; for remaining activity at 10 µM: read-out: % Enzyme Activity (relative to DMSO controls).

The target in experiment [3] is T3, 382 unique human kinases (Homo sapiens, UniProt Q9UM73, F1174L).
T3 construct: purchased Reaction Biology (HotSpot contract assay)
T3 sequence (Q9UM73 19-1620 F1174L): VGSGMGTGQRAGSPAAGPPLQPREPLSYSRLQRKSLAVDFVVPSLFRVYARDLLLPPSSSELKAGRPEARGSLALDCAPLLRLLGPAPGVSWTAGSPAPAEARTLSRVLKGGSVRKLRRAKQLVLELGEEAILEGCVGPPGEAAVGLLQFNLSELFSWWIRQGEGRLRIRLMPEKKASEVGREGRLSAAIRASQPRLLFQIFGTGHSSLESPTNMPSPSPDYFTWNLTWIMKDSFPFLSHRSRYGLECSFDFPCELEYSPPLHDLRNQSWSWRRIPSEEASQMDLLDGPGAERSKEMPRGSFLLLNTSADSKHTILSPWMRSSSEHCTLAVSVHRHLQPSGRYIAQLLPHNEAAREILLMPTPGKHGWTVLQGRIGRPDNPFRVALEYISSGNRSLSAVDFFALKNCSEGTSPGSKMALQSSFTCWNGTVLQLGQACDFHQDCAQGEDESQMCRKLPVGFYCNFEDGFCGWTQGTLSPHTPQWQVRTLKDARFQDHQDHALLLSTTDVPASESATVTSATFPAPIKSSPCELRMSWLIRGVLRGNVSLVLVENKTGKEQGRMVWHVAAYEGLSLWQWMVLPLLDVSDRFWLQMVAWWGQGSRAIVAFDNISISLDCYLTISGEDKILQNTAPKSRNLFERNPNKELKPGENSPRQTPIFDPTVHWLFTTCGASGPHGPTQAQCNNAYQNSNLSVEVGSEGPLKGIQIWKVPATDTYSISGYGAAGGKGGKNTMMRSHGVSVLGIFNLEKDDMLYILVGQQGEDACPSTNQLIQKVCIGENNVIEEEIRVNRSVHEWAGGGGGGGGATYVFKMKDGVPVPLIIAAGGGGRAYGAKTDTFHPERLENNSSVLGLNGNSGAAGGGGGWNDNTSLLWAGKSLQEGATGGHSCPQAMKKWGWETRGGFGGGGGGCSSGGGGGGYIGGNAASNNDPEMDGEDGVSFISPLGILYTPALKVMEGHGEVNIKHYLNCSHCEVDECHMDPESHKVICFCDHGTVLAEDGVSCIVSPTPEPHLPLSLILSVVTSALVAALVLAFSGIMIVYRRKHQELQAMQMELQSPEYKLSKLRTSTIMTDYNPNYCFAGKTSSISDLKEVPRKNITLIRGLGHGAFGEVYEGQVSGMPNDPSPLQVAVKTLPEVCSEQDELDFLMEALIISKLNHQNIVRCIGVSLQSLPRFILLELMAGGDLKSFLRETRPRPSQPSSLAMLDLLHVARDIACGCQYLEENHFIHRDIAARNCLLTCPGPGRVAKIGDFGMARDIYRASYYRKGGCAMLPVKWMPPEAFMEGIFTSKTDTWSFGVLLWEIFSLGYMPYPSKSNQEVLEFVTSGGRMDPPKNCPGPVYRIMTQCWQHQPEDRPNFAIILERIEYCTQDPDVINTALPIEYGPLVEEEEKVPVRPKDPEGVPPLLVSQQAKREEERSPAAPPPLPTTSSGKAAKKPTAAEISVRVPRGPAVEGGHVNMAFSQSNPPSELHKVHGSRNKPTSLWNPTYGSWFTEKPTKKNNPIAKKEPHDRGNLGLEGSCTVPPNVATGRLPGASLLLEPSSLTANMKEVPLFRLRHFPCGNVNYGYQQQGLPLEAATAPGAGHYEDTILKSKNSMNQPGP
The settings on record: ALK (F1174L), 10 uM; for remaining activity at 10 µM: read-out: % Enzyme Activity (relative to DMSO controls).

For experiment [4], the target named is T4, 382 unique human kinases (Homo sapiens, UniProt Q96PF2).
T4 construct: purchased Reaction Biology (HotSpot contract assay)
T4 sequence (Q96PF2 1-358): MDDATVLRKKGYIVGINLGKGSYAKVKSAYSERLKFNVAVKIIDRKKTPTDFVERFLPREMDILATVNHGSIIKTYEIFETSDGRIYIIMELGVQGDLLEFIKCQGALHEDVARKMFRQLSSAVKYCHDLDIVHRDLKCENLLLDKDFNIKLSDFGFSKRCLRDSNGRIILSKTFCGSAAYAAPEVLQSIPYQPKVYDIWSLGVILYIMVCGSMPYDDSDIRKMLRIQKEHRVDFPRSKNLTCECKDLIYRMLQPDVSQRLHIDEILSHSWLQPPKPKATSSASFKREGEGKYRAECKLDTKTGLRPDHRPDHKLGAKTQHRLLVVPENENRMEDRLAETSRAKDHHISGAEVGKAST
The settings on record: kinase TSSK2, compound 10 uM; for remaining activity at 10 µM: read-out: % Enzyme Activity (relative to DMSO controls).

The target of experiment [5] is T5, 382 unique human kinases (Homo sapiens, UniProt O00506).
T5 construct: purchased Reaction Biology (HotSpot contract assay)
T5 sequence (O00506 whole entry): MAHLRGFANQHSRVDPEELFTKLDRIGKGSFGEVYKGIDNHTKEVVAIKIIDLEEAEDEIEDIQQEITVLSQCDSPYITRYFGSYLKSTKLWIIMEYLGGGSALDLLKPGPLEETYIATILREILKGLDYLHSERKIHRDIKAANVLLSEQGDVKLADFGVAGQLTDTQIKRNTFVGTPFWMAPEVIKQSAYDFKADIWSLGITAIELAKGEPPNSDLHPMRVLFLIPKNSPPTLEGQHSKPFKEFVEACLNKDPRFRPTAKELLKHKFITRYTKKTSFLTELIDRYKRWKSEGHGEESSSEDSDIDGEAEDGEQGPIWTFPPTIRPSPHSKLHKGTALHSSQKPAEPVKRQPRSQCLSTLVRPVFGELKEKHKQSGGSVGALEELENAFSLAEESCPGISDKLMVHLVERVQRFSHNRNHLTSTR
The note with it: STK25/YSK1, compound at 10 uM, duplicate values; for remaining activity at 10 µM: read-out: % Enzyme Activity (relative to DMSO controls).

For experiment [6], the target named is T6, 382 unique human kinases (Homo sapiens, UniProt P10721, T670I).
T6 construct: purchased Reaction Biology (HotSpot contract assay)
T6 sequence (P10721 26-976 T670I): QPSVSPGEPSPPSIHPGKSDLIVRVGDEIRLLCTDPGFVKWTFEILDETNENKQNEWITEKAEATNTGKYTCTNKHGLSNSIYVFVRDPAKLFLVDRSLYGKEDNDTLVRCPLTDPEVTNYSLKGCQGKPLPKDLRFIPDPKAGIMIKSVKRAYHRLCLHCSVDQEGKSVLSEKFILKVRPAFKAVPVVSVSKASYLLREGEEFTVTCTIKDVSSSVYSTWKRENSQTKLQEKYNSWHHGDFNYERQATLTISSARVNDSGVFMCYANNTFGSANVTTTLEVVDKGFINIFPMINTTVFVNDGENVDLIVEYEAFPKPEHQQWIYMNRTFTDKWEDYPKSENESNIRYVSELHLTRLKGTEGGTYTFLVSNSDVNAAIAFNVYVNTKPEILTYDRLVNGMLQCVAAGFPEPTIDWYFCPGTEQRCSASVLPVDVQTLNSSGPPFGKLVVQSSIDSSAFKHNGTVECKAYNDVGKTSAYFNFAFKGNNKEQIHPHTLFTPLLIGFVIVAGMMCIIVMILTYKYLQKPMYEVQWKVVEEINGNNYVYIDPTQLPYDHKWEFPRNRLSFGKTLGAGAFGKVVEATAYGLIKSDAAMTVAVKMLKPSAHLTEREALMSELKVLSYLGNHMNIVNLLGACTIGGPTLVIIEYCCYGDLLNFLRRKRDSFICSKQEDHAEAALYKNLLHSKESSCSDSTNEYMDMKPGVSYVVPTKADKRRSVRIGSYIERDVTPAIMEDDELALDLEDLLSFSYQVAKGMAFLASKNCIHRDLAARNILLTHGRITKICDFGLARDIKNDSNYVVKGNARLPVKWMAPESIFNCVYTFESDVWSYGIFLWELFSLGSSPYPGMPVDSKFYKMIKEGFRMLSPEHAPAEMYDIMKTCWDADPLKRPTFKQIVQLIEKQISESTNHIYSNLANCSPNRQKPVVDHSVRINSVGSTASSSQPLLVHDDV
The note with it: c-Kit (T670I); 10 uM; read-out: % Enzyme Activity (relative to DMSO controls).

Experiment [7] addresses T7, 382 unique human kinases (Homo sapiens, UniProt Q8NG66).
T7 construct: purchased Reaction Biology (HotSpot contract assay)
T7 sequence (Q8NG66 1-645): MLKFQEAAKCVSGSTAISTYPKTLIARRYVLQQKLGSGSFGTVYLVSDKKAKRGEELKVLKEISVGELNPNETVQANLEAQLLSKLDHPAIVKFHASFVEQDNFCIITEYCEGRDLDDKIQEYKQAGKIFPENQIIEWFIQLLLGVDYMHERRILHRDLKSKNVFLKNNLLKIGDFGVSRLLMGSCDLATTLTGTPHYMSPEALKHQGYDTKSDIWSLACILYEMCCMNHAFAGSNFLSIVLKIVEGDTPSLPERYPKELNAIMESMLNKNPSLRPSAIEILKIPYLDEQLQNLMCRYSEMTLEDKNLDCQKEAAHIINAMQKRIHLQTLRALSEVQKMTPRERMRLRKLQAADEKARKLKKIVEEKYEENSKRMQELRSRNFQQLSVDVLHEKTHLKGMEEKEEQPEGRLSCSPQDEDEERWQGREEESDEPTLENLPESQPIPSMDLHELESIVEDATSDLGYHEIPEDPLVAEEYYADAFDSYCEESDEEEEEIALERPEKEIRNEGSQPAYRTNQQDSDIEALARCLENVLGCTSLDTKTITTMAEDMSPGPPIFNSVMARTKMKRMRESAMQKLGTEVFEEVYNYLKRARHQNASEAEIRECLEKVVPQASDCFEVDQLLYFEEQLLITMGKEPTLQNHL
The settings on record: NEK11, compound at 10 uM, duplicate values; for remaining activity at 10 µM: read-out: % Enzyme Activity (relative to DMSO controls).

In experiment [8] the target is T8, 382 unique human kinases (Homo sapiens, UniProt P49674).
T8 construct: purchased Reaction Biology (HotSpot contract assay)
T8 sequence (P49674 whole entry): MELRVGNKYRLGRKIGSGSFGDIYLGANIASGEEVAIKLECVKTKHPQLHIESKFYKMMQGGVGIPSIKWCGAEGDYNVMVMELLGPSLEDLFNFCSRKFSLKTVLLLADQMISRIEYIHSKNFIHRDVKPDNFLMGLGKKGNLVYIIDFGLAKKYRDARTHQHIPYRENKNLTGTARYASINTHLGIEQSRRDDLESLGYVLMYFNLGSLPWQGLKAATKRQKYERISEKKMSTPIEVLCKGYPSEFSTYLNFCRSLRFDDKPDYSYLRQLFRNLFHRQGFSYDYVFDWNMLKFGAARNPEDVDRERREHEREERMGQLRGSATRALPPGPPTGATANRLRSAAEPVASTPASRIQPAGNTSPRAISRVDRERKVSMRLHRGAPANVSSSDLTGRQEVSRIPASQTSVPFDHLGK
The settings on record: CK1epsilon, 10 uM; for remaining activity at 10 µM: read-out: % Enzyme Activity (relative to DMSO controls).

Experiment [9] deals with T9, 382 unique human kinases (Homo sapiens, UniProt O96013).
T9 construct: purchased Reaction Biology (HotSpot contract assay)
T9 sequence (O96013 whole entry): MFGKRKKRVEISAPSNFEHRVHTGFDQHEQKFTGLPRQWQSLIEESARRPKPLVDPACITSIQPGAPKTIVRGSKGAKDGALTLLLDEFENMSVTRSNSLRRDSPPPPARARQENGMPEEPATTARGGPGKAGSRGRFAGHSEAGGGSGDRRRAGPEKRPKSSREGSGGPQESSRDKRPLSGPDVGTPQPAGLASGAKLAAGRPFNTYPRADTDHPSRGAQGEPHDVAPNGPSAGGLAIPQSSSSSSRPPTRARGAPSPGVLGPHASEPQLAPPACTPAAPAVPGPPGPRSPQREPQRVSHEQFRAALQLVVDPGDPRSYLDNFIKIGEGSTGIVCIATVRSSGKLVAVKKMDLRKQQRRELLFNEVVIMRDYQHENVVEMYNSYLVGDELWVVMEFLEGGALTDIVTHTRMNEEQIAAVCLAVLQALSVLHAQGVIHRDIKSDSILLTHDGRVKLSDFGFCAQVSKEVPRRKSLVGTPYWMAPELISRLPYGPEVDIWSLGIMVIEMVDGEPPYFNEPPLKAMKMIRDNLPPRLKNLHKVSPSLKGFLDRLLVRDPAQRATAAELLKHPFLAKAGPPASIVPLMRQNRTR
The settings on record: PAK4, compound at 10 uM, duplicate values; for remaining activity at 10 µM: read-out: % Enzyme Activity (relative to DMSO controls).

For experiment [10], the target named is T10, 382 unique human kinases (Homo sapiens, UniProt P10721, D816V).
T10 construct: purchased Reaction Biology (HotSpot contract assay)
T10 sequence (P10721 26-976 D816V): as the sequence (P10721 26-976 T670I) above, with I645T, D791V counted along it
The settings on record: c-Kit (D816V), [ATP] 10 µM, compound 10 uM; for remaining activity at 10 µM: read-out: % Enzyme Activity (relative to DMSO controls).

Experiment [11] concerns the target T11, 382 unique human kinases (Homo sapiens, UniProt P10721, D816H).
T11 construct: purchased Reaction Biology (HotSpot contract assay)
The note with it: c-Kit (D816H), [ATP] 5 µM, compound 10 uM; for remaining activity at 10 µM: read-out: % Enzyme Activity (relative to DMSO controls).

The target of experiment [12] is T12, 382 unique human kinases (Homo sapiens, UniProt P00519, Y253F).
T12 construct: purchased Reaction Biology (HotSpot contract assay)
The settings on record: ABL1 (Y253F), [ATP] 15 µM, compound 10 uM; for remaining activity at 10 µM: read-out: % Enzyme Activity (relative to DMSO controls).

The values that follow come from PMC8550792, “Evolution of kinase polypharmacology across HSP90 drug discovery” (Cell Chemical Biology, 2021).

T1 sequence (O43353 whole entry): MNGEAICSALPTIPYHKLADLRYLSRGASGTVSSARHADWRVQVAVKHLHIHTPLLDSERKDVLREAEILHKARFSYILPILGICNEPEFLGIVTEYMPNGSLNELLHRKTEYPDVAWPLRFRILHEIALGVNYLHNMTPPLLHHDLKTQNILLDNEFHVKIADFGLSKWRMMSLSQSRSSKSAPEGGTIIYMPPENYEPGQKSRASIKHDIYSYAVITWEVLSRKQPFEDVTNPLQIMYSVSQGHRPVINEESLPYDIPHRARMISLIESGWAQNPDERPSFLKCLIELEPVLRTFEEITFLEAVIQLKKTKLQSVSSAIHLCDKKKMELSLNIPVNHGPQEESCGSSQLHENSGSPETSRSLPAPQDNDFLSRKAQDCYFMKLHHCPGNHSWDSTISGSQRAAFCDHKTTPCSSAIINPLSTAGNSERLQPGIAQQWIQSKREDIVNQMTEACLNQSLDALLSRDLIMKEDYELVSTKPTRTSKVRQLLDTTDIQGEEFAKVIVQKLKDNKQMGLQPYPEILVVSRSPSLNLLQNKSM
T11 sequence (P10721 26-976 D816H): as the sequence (P10721 26-976 T670I) above, with I645T, D791H counted along it

As to `CC(C)c1cc(-c2n[nH]c(=O)n2-c2ccc3c(ccn3C)c2)c(O)cc1O` [Ganetespib (STA9090)], the remaining activity at 10 µM at 382 unique human kinases [1] was 71.3%; at 382 unique human kinases [2] it was 91%; at 382 unique human kinases [3], 63.6%; on 382 unique human kinases [4], 90.3%; on 382 unique human kinases [5], 107%; on 382 unique human kinases [6], 67.1%. For the same compound, the remaining activity at 10 µM at 382 unique human kinases [7] worked out at 117%; on 382 unique human kinases [8] it was 73.4%; on 382 unique human kinases [9], 129%.

Consider `CC(C)c1cc(-c2n[nH]c(=O)n2-c2ccc3c(ccn3C)c2)c(O)cc1O` [Ganetespib], for which the remaining activity at 10 µM on 382 unique human kinases [10] stood at 30.4%; at 382 unique human kinases [11] it was 46.4%; on 382 unique human kinases [12], 3.72%.

In the case of `CCNC(=O)c1noc(-c2cc(C(C)C)c(O)cc2O)c1-c1ccc(CN2CCOCC2)cc1` [Luminespib (AUY-922)], the “% Enzyme Activity (relative to DMSO controls)” value on 382 unique human kinases [1] came to 109.60%; on 382 unique human kinases [2], 95.99%; on 382 unique human kinases [3], 104.30%; at 382 unique human kinases [4], 101.80%; at 382 unique human kinases [5], 107.24%; on 382 unique human kinases [7], 100.52%. Moreover, the “% Enzyme Activity (relative to DMSO controls)” value at 382 unique human kinases [8] came out at 103.86%; at 382 unique human kinases [9], 118.57%. Moreover, the remaining activity at 10 µM at 382 unique human kinases [1] is 112%; on 382 unique human kinases [2] it was 97.1%; at 382 unique human kinases [3], 104%; on 382 unique human kinases [4], 102%; at 382 unique human kinases [5] it was 110%; on 382 unique human kinases [6] it was 84.5%. Moreover, the results for the remaining activity at 10 µM at 382 unique human kinases [7], on 382 unique human kinases [8] and on 382 unique human kinases [9] were 102%, 105% and 119%, respectively.

Regarding `CCNC(=O)c1noc(-c2cc(C(C)C)c(O)cc2O)c1-c1ccc(CN2CCOCC2)cc1` [Luminespib], the “% Enzyme Activity (relative to DMSO controls)” value on 382 unique human kinases [10] is 67.99%; at 382 unique human kinases [11], 83.99%; on 382 unique human kinases [12], 4.48%. Moreover, the remaining activity at 10 µM at 382 unique human kinases [10] turned out to be 68.9%; on 382 unique human kinases [11] it was 84.3%; on 382 unique human kinases [12], 5.44%.
